Data: patent US20260184690A1, “Substituted Heterocyclic Compounds” (Bristol-Myers Squibb Company, priority 2022, published 2026)
Read-outs that look alike come from different tables or passages of the source.

Key:
in vitro = conditions: human, Caco-2, pH 7.4
[1] = tested on: IFNα-induced pSTAT5 in human whole blood (CD3 positive population); assay: IFNα-induced STAT phosphorylation in human whole blood; assay type: cell-based; conditions: 1 h compound incubation, 1000 U/mL IFNα A/D for 15 min, CD3+ gate, read-out: Human Whole blood IFNa pSTAT5 IC50
Procedure: After an hour long incubation with compound, human whole blood (drawn with ACD-A as anticoagulant) was stimulated with 1000 U/mL recombinant human IFNα A/D (R&D Systems 11200-2) for 15 min. The stimulation was stopped by adding Fix/Lyse buffer (BD 558049). Cells were stained with a CD3 FITC antibody (BD 555916), washed, and permeabilized on ice using Perm III buffer (BD 558050). Cells were then stained with an Alexa-Fluor 647 pSTAT5 (pY694) antibody (BD 612599) for 60 min prior to analysis on the iQue Plus. The amount of pSTAT5 expression was quantitated by median fluorescence intensity after gating on the CD3 positive population.

Caco-2 cells [2] = assay: Bidirectional permeability assay in Caco-2 cells; conditions: 3 μM, pH 7.4, 0.5% BSA, 2 hours at 37° C.; for Caco-2 AB: apical-to-basolateral Pc
Caco-2 cells [3] = conditions: human, Caco-2, 2 h, 3 μM, pH 7.4

Question: Which results are given for [2H]C([2H])([2H])NC(=O)c1nnc(N2CCN(C(C)C)C2=O)cc1Nc1nc(C)cc(-c2cnn(C)n2)c1OC [Example 8, 6-(3-isopropyl-2-oxoimidazolidin-1-yl)-4-((3-methoxy-6-methyl-4-(2-methyl-2H-1,2,3-triazol-4-yl)pyridin-2-yl)amino)-N-(methyl-d3)pyridazine-3-carboxamide]?
Answer: Papp A→B at 2 h, 3 μM (in vitro): 15.4 ×10⁻⁶ cm/s; efflux ratio at 2 h, 3 μM (in vitro): 0.3; IC50 [1]: 383 nM

Question: Which Caco-2 efflux ratio (Caco-2 cells [2]) does the source give for [2H]C([2H])([2H])NC(=O)c1cnc(N2CCN(C(C)C)C2=O)cc1Nc1cccc(-c2cnn(C)n2)c1OC [Example 3, 4-{[2-methoxy-3-(2-methyl-2H-1,2,3-triazol-4-yl)phenyl]amino}-N-(^2H3)methyl-6-[2-oxo-3-(propan-2-yl)imidazolidin-1-yl]pyridine-3-carboxamide] here?
Answer: 0.7

Question: And the “Caco-2 AB” value (Caco-2 cells [2])?
Answer: 287 nm/s

Question: With [2H]C([2H])([2H])NC(=O)c1nnc(N2CCN(C3CC3)C2=O)cc1Nc1cccc(-c2cnn(C)n2)c1OC [Example 5, 6-(3-cyclopropyl-2-oxoimidazolidin-1-yl)-4-{[2-methoxy-3-(2-methyl-2H-1,2,3-triazol-4-yl)phenyl]amino}-N-(^2H3)methylpyridazine-3-carboxamide] as the compound, how does the “Caco-2 AB” value (Caco-2 cells [3]) read?
Answer: 361 nm/s

Question: Which “Caco-2 AB” value (Caco-2 cells [3]) does the source give for [2H]C([2H])([2H])NC(=O)c1nnc(N2CCN(C3CC3)C2=O)cc1Nc1nccc(-c2cnn(C)n2)c1OC [Example 4, 6-(3-cyclopropyl-2-oxoimidazolidin-1-yl)-4-{[3-methoxy-4-(2-methyl-2H-1,2,3-triazol-4-yl)pyridin-2-yl]amino}-N-(^2H3)methylpyridazine-3-carboxamide] here?
Answer: 576 nm/s

Question: For CNC(=O)c1nnc(N2CCN(C3CC3)C2=O)cc1Nc1nccc(-c2cnn(C)n2)c1OC [Example 4, 6-(3-cyclopropyl-2-oxoimidazolidin-1-yl)-4-{[3-methoxy-4-(2-methyl-2H-1,2,3-triazol-4-yl)pyridin-2-yl]amino}-N-(^2H3)methylpyridazine-3-carboxamide], which IC50 [1] is on record?
Answer: 26 nM

Question: With [2H]C([2H])([2H])NC(=O)c1nnc(N2CCN(C3CCC3)C2=O)cc1Nc1nccc(-c2cnn(C)n2)c1OC [Example 7, 6-(3-cyclobutyl-2-oxoimidazolidin-1-yl)-4-{[3-methoxy-4-(2-methyl-2H-1,2,3-triazol-4-yl)pyridin-2-yl]amino}-N-(^2H3)methylpyridazine-3-carboxamide] as the compound, how does the “Caco-2 AB” value (Caco-2 cells [3]) read?
Answer: 139 nm/s

Question: For [2H]C([2H])([2H])NC(=O)c1nnc(N2CCN(C3CC3)C2=O)cc1Nc1nc(C)cc(-c2cnn(C)n2)c1OC [Example 9, 6-(3-cyclopropyl-2-oxoimidazolidin-1-yl)-4-((3-methoxy-6-methyl-4-(2-methyl-2H-1,2,3-triazol-4-yl)pyridin-2-yl)amino)-N-(methyl-d3)pyridazine-3-carboxamide], which Papp A→B at 2 h, 3 μM (in vitro) is on record?
Answer: 13.7 ×10⁻⁶ cm/s

Question: What about the efflux ratio at 2 h, 3 μM (in vitro) of the same compound?
Answer: 0.2

Question: What about the IC50 [1] of the same compound?
Answer: 141 nM

Question: With CNC(=O)c1cnc(N2CCN(C(C)C)C2=O)cc1Nc1nccc(-c2cnn(C)n2)c1OC [Example 2, 4-{[3-methoxy-4-(2-methyl-2H-1,2,3-triazol-4-yl)pyridin-2-yl]amino}-N-(^2H3)methyl-6-[2-oxo-3-(propan-2-yl)imidazolidin-1-yl]pyridine-3-carboxamide] as the compound, how does the IC50 [1] read?
Answer: 26 nM

Question: With CNC(=O)c1cnc(N2CCN(C(F)(F)F)C2=O)cc1Nc1cccc(-c2cnn(C)n2)c1OC [Example 6, 4-{[2-methoxy-3-(2-methyl-2H-1,2,3-triazol-4-yl)phenyl]amino}-N-(^2H3)methyl-6-[2-oxo-3-(trifluoromethyl)imidazolidin-1-yl]pyridine-3-carboxamide] as the compound, how does the IC50 [1] read?
Answer: 800 nM

Question: Which Caco-2 efflux ratio (Caco-2 cells [2]) does the source give for [2H]C([2H])([2H])NC(=O)c1cnc(N2CCN(C(F)(F)F)C2=O)cc1Nc1cccc(-c2cnn(C)n2)c1OC [Example 6, 4-{[2-methoxy-3-(2-methyl-2H-1,2,3-triazol-4-yl)phenyl]amino}-N-(^2H3)methyl-6-[2-oxo-3-(trifluoromethyl)imidazolidin-1-yl]pyridine-3-carboxamide] here?
Answer: 0.6

Question: And the “Caco-2 AB” value (Caco-2 cells [2])?
Answer: 118 nm/s

Question: For [2H]C([2H])([2H])NC(=O)c1cnc(N2CCN(C(C)C)C2=O)cc1Nc1nccc(-c2cnn(C)n2)c1OC [Example 2, 4-{[3-methoxy-4-(2-methyl-2H-1,2,3-triazol-4-yl)pyridin-2-yl]amino}-N-(^2H3)methyl-6-[2-oxo-3-(propan-2-yl)imidazolidin-1-yl]pyridine-3-carboxamide], which Caco-2 efflux ratio (Caco-2 cells [2]) is on record?
Answer: 1.4

Question: And the “Caco-2 AB” value (Caco-2 cells [2])?
Answer: 233 nm/s

Question: For CNC(=O)c1nnc(N2CCN(C3CC3)C2=O)cc1Nc1cccc(-c2cnn(C)n2)c1OC [Example 5, 6-(3-cyclopropyl-2-oxoimidazolidin-1-yl)-4-{[2-methoxy-3-(2-methyl-2H-1,2,3-triazol-4-yl)phenyl]amino}-N-(^2H3)methylpyridazine-3-carboxamide], which IC50 [1] is on record?
Answer: 95 nM

Question: Which IC50 [1] does the source give for CNC(=O)c1cnc(N2CCN(C(C)C)C2=O)cc1Nc1cccc(-c2cnn(C)n2)c1OC [Example 3, 4-{[2-methoxy-3-(2-methyl-2H-1,2,3-triazol-4-yl)phenyl]amino}-N-(^2H3)methyl-6-[2-oxo-3-(propan-2-yl)imidazolidin-1-yl]pyridine-3-carboxamide] here?
Answer: 77 nM

Question: With CNC(=O)c1nnc(N2CCN(C3CCC3)C2=O)cc1Nc1nccc(-c2cnn(C)n2)c1OC [Example 7, 6-(3-cyclobutyl-2-oxoimidazolidin-1-yl)-4-{[3-methoxy-4-(2-methyl-2H-1,2,3-triazol-4-yl)pyridin-2-yl]amino}-N-(^2H3)methylpyridazine-3-carboxamide] as the compound, how does the IC50 [1] read?
Answer: 47 nM
